Reference: the NIST ThermoML archive (doi:10.1016/j.jct.2017.03.032)
Numbers after ± are expanded uncertainties.

Conditions: Liquid, Closed cell (Static) method

## F/C=C/C(F)(F)F [trans-1,3,3,3-tetrafluoropropene]
280.15 K
  vapor or sublimation pressure: 276.5 ± 20 kPa
285.18 K
  vapor or sublimation pressure: 328.2 ± 20 kPa
290.12 K
  vapor or sublimation pressure: 386 ± 20 kPa
295.11 K
  vapor or sublimation pressure: 452.1 ± 20 kPa
300.15 K
  vapor or sublimation pressure: 526.7 ± 20 kPa
305.15 K
  vapor or sublimation pressure: 609.7 ± 20 kPa
310.34 K
  vapor or sublimation pressure: 706.3 ± 20 kPa
315.18 K
  vapor or sublimation pressure: 805 ± 20 kPa
320.1 K
  vapor or sublimation pressure: 916.6 ± 20 kPa
325.17 K
  vapor or sublimation pressure: 1043.5 ± 20 kPa
330.13 K
  vapor or sublimation pressure: 1178.1 ± 20 kPa
